Laboratory results from patent EP2970215B1, “PYRROLIDINE DERIVATIVES, PHARMACEUTICAL COMPOSITIONS CONTAINING THEM, AND THEIR USE IN THERAPY” (AbbVie Deutschland GmbH & Co. KG, priority 2013, dated 2014).

The compounds below were run against T1, human GlyT1c transporter (Homo sapiens, UniProt P48067) (assay: Radioligand binding assay using recombinant CHO cell membranes expressing human GlyT1). Conditions: radioligand binding to human GlyT1c transporter-expressing membranes.
T1 construct: expressed in transfected cells; host or cells: CHO cells (recombinant; line hGlyT1c_5_CHO is named for the uptake assay)
T1 sequence (P48067 1-706): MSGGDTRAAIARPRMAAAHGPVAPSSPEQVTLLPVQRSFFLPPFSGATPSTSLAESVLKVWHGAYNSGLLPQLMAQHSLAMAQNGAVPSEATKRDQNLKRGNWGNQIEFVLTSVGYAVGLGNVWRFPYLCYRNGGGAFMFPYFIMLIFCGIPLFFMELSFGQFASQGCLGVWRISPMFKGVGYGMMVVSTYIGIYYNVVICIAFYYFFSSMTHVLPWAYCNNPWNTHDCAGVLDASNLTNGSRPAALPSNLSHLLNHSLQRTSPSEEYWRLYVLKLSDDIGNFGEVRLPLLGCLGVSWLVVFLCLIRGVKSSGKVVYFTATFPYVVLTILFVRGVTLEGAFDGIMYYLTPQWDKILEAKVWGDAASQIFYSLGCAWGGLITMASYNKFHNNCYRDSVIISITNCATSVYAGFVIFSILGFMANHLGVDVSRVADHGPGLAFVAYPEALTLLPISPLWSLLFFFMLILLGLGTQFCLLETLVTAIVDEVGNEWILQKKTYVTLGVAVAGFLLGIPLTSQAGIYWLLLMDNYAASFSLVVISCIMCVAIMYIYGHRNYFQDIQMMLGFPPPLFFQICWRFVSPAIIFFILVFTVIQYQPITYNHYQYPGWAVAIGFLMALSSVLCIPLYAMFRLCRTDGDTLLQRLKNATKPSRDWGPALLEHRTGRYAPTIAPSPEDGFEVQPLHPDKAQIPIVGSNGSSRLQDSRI
Source text: 2. Radioligand binding assays using recombinant CHO cell membranes expressing human GlyT1: […]

| Structure (SMILES) | Ki [nM] |
| --- | --- |
| Cn1cnc(S(=O)(=O)N2C[C@H](Nc3ccc4c(c3)CCCC4)[C@@H](c3ccccc3)C2)c1 [Example 657, (3R,4S)-1-[(1-methyl-1H-imidazol-4-yl)sulfonyl]-4-phenyl-N-(5,6,7,8-tetrahydronaphthalen-2-yl)pyrrolidin-3-amine] | ≤ 1000 |
| CCCn1cc([C@H]2CN(S(=O)(=O)c3cn(C)cn3)C[C@@H]2c2ccc(F)cc2)nn1 [Example 640, 4-{(3R,4S)-4-(4-fluorophenyl)-1-[(1-methyl-1H-imidazol-4-yl)sulfonyl]pyrrolidin-3-yl}-1-propyl-1H-1,2,3-triazole] | ≤ 1000 |
| Cn1cnc(S(=O)(=O)N2C[C@@H](N3Cc4cc(C(F)(F)F)ccc4NC3=O)[C@H](c3ccccc3)C2)c1 (relative stereo) [Example 404, 3-{Trans-1-[(1-methyl-1H-imidazol-4-yl)sulfonyl]-4-phenylpyrrolidin-3-yl}-6-(trifluoromethyl)-3,4-dihydroquinazolin-2(1H)-one] | ≤ 10000 |
| Cn1cnc(S(=O)(=O)N2C[C@H](Nc3cc(OCC(F)(F)F)c(F)cn3)[C@@H](c3ccccc3)C2)c1 [Example 803, 5-fluoro-N-{(3R,4S)-1-[(1-methyl-1H-imidazol-4-yl)sulfonyl]-4-phenylpyrrolidin-3-yl}-4-(2,2,2-trifluoroethoxy)pyridin-2-amine] | ≤ 10 |
| Cn1cnc(S(=O)(=O)N2C[C@@H](Nc3ccc(F)c(Cl)c3)[C@H](c3cccc(F)c3)C2)c1 (relative stereo) [Example 194, trans-N-(3-chloro-4-fluorophenyl)-4-(3-fluorophenyl)-1-[(1-methyl-1H-imidazol-4-yl)sulfonyl]pyrrolidin-3-amine] | ≤ 100 |
| CC(C)CO[C@@H]1CN(S(=O)(=O)c2cn(C)cn2)C[C@H]1Nc1cccc(Cl)c1 (relative stereo) [Example 412, Trans-N-(3-chlorophenyl)-1-[(1-methyl-1H-imidazol-4-yl)sulfonyl]-4-(2-methylpropoxy)pyrrolidin-3-amine] | ≤ 1000 |
| Cn1cnc(S(=O)(=O)N2C[C@H](NCC3(C)CCOCC3)[C@@H](c3ccccc3)C2)c1 [Example 429, (3R,4S)-1-[(1-methyl-1H-imidazol-4-yl)sulfonyl]-N-[(4-methyltetrahydro-2H-pyran-4-yl)methyl]-4-phenylpyrrolidin-3-amine] | > 10000 |
| Cc1cccc(C(=O)N[C@@H]2CN(S(=O)(=O)c3cn(C)cn3)C[C@H]2c2ccccc2)c1 (relative stereo) [Example 23, 3-methyl-N-{trans-1-[(1-methyl-1H-imidazol-4-yl)sulfonyl]-4-phenylpyrrolidin-3-yl}benzamide] | ≤ 10000 |
| Cn1cnc(S(=O)(=O)N2C[C@@H](NCc3ccc(C(F)(F)F)cc3Cl)[C@H](c3ccccn3)C2)c1 (relative stereo) [Example 320, trans-N-[2-chloro-4-(trifluoromethyl)benzyl]-1-[(1-methyl-1H-imidazol-4-yl)sulfonyl]-4-(pyridin-2-yl)pyrrolidin-3-amine] | ≤ 10 |
| CCc1cc(N[C@H]2CN(S(=O)(=O)c3cn(C)cn3)C[C@@H]2c2ccc(F)cc2)ncn1 [Example 613, 6-ethyl-N-{(3R,4S)-4-(4-fluorophenyl)-1-[(1-methyl-1H-imidazol-4-yl)sulfonyl]pyrrolidin-3-yl}pyrimidin-4-amine] | ≤ 1000 |
| Cn1cnc(S(=O)(=O)N2C[C@@H](Nc3ccc(F)c(F)c3F)[C@H](c3ccc(F)cc3)C2)c1 (relative stereo) [Example 166, trans-4-(4-fluorophenyl)-1-[(1-methyl-1H-imidazol-4-yl)sulfonyl]-N-(2,3,4-trifluorophenyl)pyrrolidin-3-amine] | ≤ 1000 |
| Cn1cnc(S(=O)(=O)N2C[C@H](Nc3ncc(F)c(C(F)(F)F)c3F)[C@@H](c3ccccc3)C2)c1 [Example 408, 3,5-difluoro-N-{(3R,4S)-1-[(1-methyl-1H-imidazol-4-yl)sulfonyl]-4-phenylpyrrolidin-3-yl}-4-(trifluoromethyl)pyridin-2-amine] | ≤ 10000 |
| CC(C)c1cc(N[C@H]2CN(S(=O)(=O)c3cn(C)cn3)C[C@@H]2c2ccc(F)cc2)ccc1Cl [Example 675, (3R,4S)-N-[4-chloro-3-(propan-2-yl)phenyl]-4-(4-fluorophenyl)-1-[(1-methyl-1H-imidazol-4-yl)sulfonyl]pyrrolidin-3-amine] | ≤ 1000 |
| Cn1cnc(S(=O)(=O)N2C[C@@H](C(=O)c3cccc(C(F)(F)F)c3)[C@H](c3ccc(F)cc3)C2)c1 (relative stereo) [Example 302, {trans-4-(4-fluorophenyl)-1-[(1-methyl-1H-imidazol-4-yl)sulfonyl]pyrrolidin-3-yl}[3-(trifluoromethyl)phenyl]methanone] | ≤ 100 |
| CCCCCN[C@@H]1CN(S(=O)(=O)c2cn(C)cn2)C[C@H]1c1ncccc1F (relative stereo) [Example 765, Trans-4-(3-fluoropyridin-2-yl)-1-[(1-methyl-1H-imidazol-4-yl)sulfonyl]-N-pentylpyrrolidin-3-amine] | ≤ 1000 |
| O=C(N[C@@H]1CN(S(=O)(=O)c2cn[nH]c2)C[C@H]1c1ccccc1)c1cccc(C(F)(F)F)c1Cl (relative stereo) [Example 46, 2-chloro-N-[trans-4-phenyl-1-(1H-pyrazol-4-ylsulfonyl)pyrrolidin-3-yl]-3-(trifluoromethyl)benzamide] | ≥ 10000 |
| Cn1cnc(S(=O)(=O)N2C[C@@H](C(=O)Nc3cc(C(F)(F)F)ccn3)[C@H](c3ccc(F)cc3)C2)c1 (relative stereo) [Example 369, Trans-4-(4-fluorophenyl)-1-[(1-methyl-1H-imidazol-4-yl)sulfonyl]-N-[4-(trifluoromethyl)pyridin-2-yl]pyrrolidine-3-carboxamide] | ≤ 1000 |
| Cn1cnc(S(=O)(=O)N2C[C@@H](NC(=O)c3ccc(C(F)(F)F)cc3Cl)[C@H](c3ccccc3)C2)c1 (relative stereo) [Example 60, 2-chloro-N-{trans-1-[(1-methyl-1H-imidazol-4-yl)sulfonyl]-4-phenylpyrrolidin-3-yl}-4-(trifluoromethyl)benzamide] | ≤ 100 |
| Cc1nc(N[C@H]2CN(S(=O)(=O)c3cn(C)cn3)C[C@@H]2c2ccc(F)cc2)cc(C(F)(F)F)n1 [Example 615, N-{(3R,4S)-4-(4-fluorophenyl)-1-[(1-methyl-1H-imidazol-4-yl)sulfonyl]pyrrolidin-3-yl}-2-methyl-6-(trifluoromethyl)pyrimidin-4-amine] | ≤ 1000 |
| Cn1cnc(S(=O)(=O)N2C[C@H](OCC(=O)NCC(F)F)[C@@H](c3ccc(F)cc3)C2)c1 [Example 797, N-(2,2-difluoroethyl)-2-({(3R,4S)-4-(4-fluorophenyl)-1-[(1-methyl-1H-imidazol-4-yl)sulfonyl]pyrrolidin-3-yl}oxy)acetamide] | ≤ 10000 |
| Cn1cnc(S(=O)(=O)N2C[C@@H](Nc3ccc(Cl)cc3)[C@H](c3ccccc3Cl)C2)c1 (relative stereo) [Example 254, trans-4-(2-chlorophenyl)-N-(4-chlorophenyl)-1-[(1-methyl-1H-imidazol-4-yl)sulfonyl]pyrrolidin-3-amine] | ≤ 10000 |
| Cn1cnc(S(=O)(=O)N2C[C@H](NC(=O)c3cnc(Cl)cn3)[C@@H](c3ccccc3)C2)c1 [Example 415, 5-chloro-N-{(3R,4S)-1-[(1-methyl-1H-imidazol-4-yl)sulfonyl]-4-phenylpyrrolidin-3-yl}pyrazine-2-carboxamide] | ≤ 10000 |
| Cn1cnc(S(=O)(=O)N2C[C@@H](C(=O)Nc3cccc(Cl)c3)[C@H](c3ccc(F)cc3)C2)c1 (relative stereo) [Example 304, trans-N-(3-chlorophenyl)-4-(4-fluorophenyl)-1-[(1-methyl-1H-imidazol-4-yl)sulfonyl]pyrrolidine-3-carboxamide] | ≤ 1000 |
| Cn1cnc(S(=O)(=O)N2C[C@H](Nc3cc(-c4cccc(Cl)c4)ncn3)[C@@H](c3ccc(F)cc3)C2)c1 [Example 729, 6-(3-chlorophenyl)-N-{(3R,4S)-4-(4-fluorophenyl)-1-[(1-methyl-1H-imidazol-4-yl)sulfonyl]pyrrolidin-3-yl}pyrimidin-4-amine] | ≤ 10 |
| Cn1cnc(S(=O)(=O)N2C[C@@H](Nc3ccc(Cl)c(C#N)c3)[C@H](c3ccccc3)C2)c1 (relative stereo) [Example 79, 2-chloro-5-({trans-1-[(1-methyl-1H-imidazol-4-yl)sulfonyl]-4-phenylpyrrolidin-3-yl}amino)benzonitrile] | ≤ 1000 |

Same assay, conditions: radioligand binding, recombinant CHO cell membranes expressing human GlyT1c

| Structure (SMILES) | Ki [nM] |
| --- | --- |
| Cn1cnc(S(=O)(=O)N2CC3c4ccccc4CCC3(NCc3ccc(C(F)(F)F)cc3Cl)C2)c1 (stereo not drawn) [Example 890, N-[2-chloro-4-(trifluoromethyl)benzyl]-2-[(1-methyl-1H-imidazol-4-yl)sulfonyl]-1,2,3,4,5,9b-hexahydro-3aH-benzo[e]isoindol-3a-amine] | ≤ 100 |
| Cc1cc(N[C@@H]2CN(S(=O)(=O)c3cn(C)cn3)C[C@H]2C2CCCCO2)ncc1F (relative stereo) [Example 852, 5-Fluoro-4-methyl-N-[trans-1-[(1-methyl-1H-imidazol-4-yl)sulfonyl]-4-(tetrahydro-2H-pyran-2-yl)pyrrolidin-3-yl]pyridin-2-amine] | ≤ 1000 |
